This assay addresses T1, NLRP3 inflammasome (Homo sapiens, UniProt Q96P20).
T1 construct: endogenous in cells; host or cells: THP-1 cells (PMA-differentiated, LPS-primed, nigericin-stimulated)
The assay can be described thus: Cell assay of inhibitory activity against NLRP3 inflammasome in THP-1 cells (LPS/nigericin stimulation, caspase-1 glo readout). Format: cell-based. Particulars: PMA-differentiated THP-1 cells; LPS 500 ng/ml 3 h, compound 1 h, nigericin 10 µg/ml 30 min; active caspase-1 in supernatant. The procedure: Experimental Example 1: Cell assay of inhibitory activity of the compounds of the present disclosure against NLRP3 inflammasome
Test compounds: the compounds of the present disclosure prepared in accordance with the methods described in the Examples
THP-1 was an immortalized human macrophage cell line.
Test instrument: Microplate reader (manufactured by PE)
• 1. THP-1 cells were cultured in 1640 complete medium (500 ml 1640+56 ml FBS+560 µl 1000× P/S+2 µl mercaptoethanol), and used within 3 to 20 passages. • 2. Coating of culture plates: 100 µl of polylysine solution was added into a 96-well cell culture plate and incubated at 37°C for 30min. The solution was discarded, and the plate was washed twice with PBS for later use. • 3. Induction of differentiation of THP-1: THP-1 cells were resuspended in an appropriate amount of complete medium containing 10 ng/ml PMA to achieve a cell density of 5×10^5 cells /ml in the suspension. The cell suspension was added into a 96-well plate with 100 µl of cell suspension per well, and the 96-well plate was cultured overnight for 16 hours in a 37°C CO2 cell incubator. • 4. Stimulation of THP-1: • a. Serum-free THP-1 culture medium containing LPS was added to achieve a final concentration of 500 ng/ml, and the resultant was cultured in a 37°C CO2 cell incubator for 3h; • b. The compounds to be tested were prepared into stock solutions at gradient concentrations with DMSO. The resulting solutions were added to the cells, evenly mixed, and finally diluted at 1:1000. The 96-well plate was cultured in a 37°C CO2 cell incubator for 1h. • c. Nigericin was added to each well to achieve a final concentration of 10 µg/ml, and the resultant was cultured in a 37°C CO2 cell incubator for 30 min. • d. The resulting culture medium in each well was transferred to a new culture plate, which was then centrifuged at 3000 rpm for 5min. Afterwards, the supernatant was transferred to a new 96-well plate. • e. The collected supernatant samples of the cell culture medium were determined by using a commercial caspase-1 glo kit, and the content of human active caspase-1 was determined according to the manufacturer's instructions.

Each structure is given as a SMILES string.

T1 sequence (Q96P20 whole entry): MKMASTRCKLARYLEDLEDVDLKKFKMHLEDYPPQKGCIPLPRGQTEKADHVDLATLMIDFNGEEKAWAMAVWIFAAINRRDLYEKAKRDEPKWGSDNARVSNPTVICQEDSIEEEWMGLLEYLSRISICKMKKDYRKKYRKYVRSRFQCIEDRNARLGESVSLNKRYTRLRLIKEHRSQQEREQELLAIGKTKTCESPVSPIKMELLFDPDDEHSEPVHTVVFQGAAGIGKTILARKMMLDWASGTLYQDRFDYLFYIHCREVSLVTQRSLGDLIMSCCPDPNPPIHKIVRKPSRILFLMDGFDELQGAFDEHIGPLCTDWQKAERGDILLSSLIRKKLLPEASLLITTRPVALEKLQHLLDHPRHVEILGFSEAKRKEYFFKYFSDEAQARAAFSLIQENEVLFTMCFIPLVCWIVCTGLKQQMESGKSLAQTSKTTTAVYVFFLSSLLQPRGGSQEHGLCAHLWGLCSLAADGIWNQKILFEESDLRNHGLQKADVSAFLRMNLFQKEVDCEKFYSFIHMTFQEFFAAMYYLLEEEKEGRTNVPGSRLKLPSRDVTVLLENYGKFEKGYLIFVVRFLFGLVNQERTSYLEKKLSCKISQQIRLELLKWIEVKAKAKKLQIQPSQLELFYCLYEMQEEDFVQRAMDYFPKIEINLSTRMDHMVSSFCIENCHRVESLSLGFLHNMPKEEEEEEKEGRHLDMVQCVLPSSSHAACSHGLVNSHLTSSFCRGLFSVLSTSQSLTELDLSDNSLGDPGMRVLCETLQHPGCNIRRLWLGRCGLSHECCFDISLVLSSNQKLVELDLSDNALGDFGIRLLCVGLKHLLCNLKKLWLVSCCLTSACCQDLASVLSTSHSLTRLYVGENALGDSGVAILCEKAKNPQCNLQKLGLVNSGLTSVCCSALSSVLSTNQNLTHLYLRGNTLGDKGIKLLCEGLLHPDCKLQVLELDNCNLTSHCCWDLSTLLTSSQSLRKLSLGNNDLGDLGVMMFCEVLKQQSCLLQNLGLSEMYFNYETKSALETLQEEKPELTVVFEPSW

One may read the IC50 as the concentration that gives 50% inhibition. Lower therefore signals greater potency. The compound `C#Cc1ccc(-c2nnc(NC(=O)CNC)cc2C2CC2)c(O)c1` [Compound 7, N-(5-cyclopropyl-6-(4-ethynyl-2-hydroxyphenyl)pyridazin-3-yl)-2-(methylamino)acetamide] came in with an IC50 of 1.3 nM.
To `C#Cc1ccc(-c2nnc(NC(=O)CNC3CCC3)cc2C)c(O)c1` [Compound 31, N-(6-(4-ethynyl-2-hydroxyphenyl)-5-methylpyridazin-3-yl)-2-(cyclobutylamino)acetamide] belongs 13.1 nM; to `CNCC(=O)Nc1cc(C)c(-c2ccc(C(F)(F)F)cc2O)nn1` [Compound 17, N-(6-(2-hydroxy-4-(trifluoromethyl)phenyl)-5-methylpyridazin-3-yl)-2-(methylamino)acet amide], 17.8 nM; to `C#Cc1ccc(-c2nnc(NC(=O)[C@H](N)C3CC3)cc2C2CC2)c(O)c1` [Compound 53, (R)-2-amino-2-cyclopropyl-N-(5-cyclopropyl-6-(4-ethynyl-2-hydroxyphenyl)pyridazin-3-yl)acetamide], 5.9 nM.
Next, `C#Cc1ccc(-c2nnc(NC(=O)[C@@H](C)NC)cc2C2CC2)c(O)c1` [Compound 36, (R)-N-(5-cyclopropyl-6-(4-ethynyl-2-hydroxyphenyl)pyridazin-3-yl)-2-(methylamino)prop anamide]: 2.9 nM; `CNCC(=O)Nc1cc(C2CC2)c(-c2ccc(Cl)cc2O)nn1` [Compound 67, N-(6-(4-chloro-2-hydroxyphenyl)-5-cyclopropylpyridazin-3-yl)-2-(methylamino)acetamide]: 5.6 nM.
The compound `C#Cc1ccc(-c2nnc(NC(=O)[C@H](N)COC)cc2C2CC2)c(O)c1` [Compound 51, (R)-2-amino-N-(5-cyclopropyl-6-(4-ethynyl-2-hydroxyphenyl)pyridazin-3-yl)-3-methoxyp ropanamide] registered an IC50 of 14.6 nM.
To `C#Cc1ccc(-c2nnc(NC(=O)CNC(C)C)cc2C)c(O)c1` [Compound 3, N-(6-(4-ethynyl-2-hydroxyphenyl)-5-methylpyridazin-3-yl)-2-(isopropylamino)acetamide] belongs 32.4 nM; to `C[C@@H](N)C(=O)Nc1cc(C2CCC2)c(-c2ccc(C(F)(F)F)cc2O)nn1` [Compound 63, (R)-2-amino-N-(5-cyclobutyl-6-(2-hydroxy-4-(trifluoromethyl)phenyl)pyridazin-3-yl)prop anamide], 7.2 nM; to `C#Cc1ccc(-c2nnc(NC(=O)[C@H](N)C(C)C)cc2C2CC2)c(O)c1` [Compound 56, (R)-2-amino-N-(5-cyclopropyl-6-(4-ethynyl-2-hydroxyphenyl)pyridazin-3-yl)-3-methylbut anamide], 7.1 nM.
To `C#Cc1ccc(-c2nnc(NC(=O)[C@H](N)[C@H](C)O)cc2C2CC2)c(O)c1` [Compound 57, (2R, 3S)-2-amino-N-(5-cyclopropyl-6-(4-ethynyl-2-hydroxyphenyl)pyridazin-3-yl)-3-hydroxyb utanamide] belongs 17.5 nM.
Compound `C#Cc1ccc(-c2nnc(NC(=O)[C@@H](C)N)cc2C2CC2)c(O)c1` [Compound 44, (R)-2-amino-N-(5-cyclopropyl-6-(4-ethynyl-2-hydroxyphenyl)pyridazin-3-yl)propanamide] showed an IC50 of 6.4 nM.
Next, `C#Cc1ccc(-c2nnc(NC(=O)[C@H](N)[C@@H](C)O)cc2C2CC2)c(O)c1` [Compound 59, (2R,3R)-2-amino-N-(5-cyclopropyl-6-(4-ethynyl-2-hydroxyphenyl)pyridazin-3-yl)-3-hydro xybutanamide]: 32.3 nM; `C#Cc1ccc(-c2nnc(NC(=O)[C@H](C)NC)cc2C2CC2)c(O)c1` [Compound 37, (S)-N-(5-cyclopropyl-6-(4-ethynyl-2-hydroxyphenyl)pyridazin-3-yl)-2-(methylamino)prop anamide]: 29.4 nM; `C#Cc1ccc(-c2nnc(NC(=O)CNC(C)C)cc2C2CC2)c(O)c1` [Compound 9, N-(5-cyclopropyl-6-(4-ethynyl-2-hydroxyphenyl)pyridazin-3-yl)-2-(isopropylamino)acetamide]: 9.7 nM.

These data come from EP4759805A1, “NLRP3 INFLAMMASOME INHIBITOR AND USE THEREOF” (NEUROCRINE BIOSCIENCES, INC., priority 2023, dated 2025).
